Assay results published in patent US20220324865A1 (Bayer Aktiengesellschaft, priority 2018, published 2022).

The compounds below were run against T1, human EP3 receptor (Homo sapiens, UniProt P43115) (assay: Cellular in vitro assay for determining EP3 receptor activity (human EP3 cell line, sulprostone-stimulated calcium luminescence)). Settings: CHO cells expressing human EP3 and mitochondrial Clytin; antagonist mode, sulprostone at EC50; read-out: EP3 CHO mtCLY ANTAG IC50.
T1 construct: expressed in transfected cells; host or cells: CHO K1 (Chinese Hamster Ovary), stably co-transfected with Galpha16 and mitochondrial clytin
T1 sequence (P43115 1-390): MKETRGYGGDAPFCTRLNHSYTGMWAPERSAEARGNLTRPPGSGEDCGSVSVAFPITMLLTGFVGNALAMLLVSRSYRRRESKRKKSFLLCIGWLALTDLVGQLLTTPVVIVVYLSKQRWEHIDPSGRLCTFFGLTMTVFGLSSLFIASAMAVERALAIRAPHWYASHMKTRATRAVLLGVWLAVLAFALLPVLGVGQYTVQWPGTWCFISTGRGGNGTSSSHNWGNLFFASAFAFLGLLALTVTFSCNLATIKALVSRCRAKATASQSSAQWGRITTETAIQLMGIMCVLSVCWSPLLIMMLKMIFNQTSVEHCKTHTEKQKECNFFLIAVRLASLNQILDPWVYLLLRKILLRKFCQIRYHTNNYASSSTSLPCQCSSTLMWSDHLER
Assay type: cell-based
Outline: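 Antagonist activity was measured as inhibition of the luminescent calcium signal elicited by EC50 sulprostone, following 10 min compound pretreatment. The cell line was recombinant CHO K1 co-expressing human EP3, Gα16 and the photoprotein Clytin, reconstituted with coelenterazine.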

| Compound | IC50 |
| --- | --- |
| Cc1c(C(=O)NC2CCc3ccccc32)nn2c(C)c(-c3ccc4ccccc4c3)[nH]c(=O)c12 (centres unmarked) [Example 3-75, N-(2,3-Dihydro-1H-inden-1-yl)-3,7-dimethyl-6-(2-naphthyl)-4-oxo-4,5-dihydropyrazolo[1,5-a]pyrazine-2-carboxamide] | 6.45 nM |
| Cc1cccc2ncc(-c3cn4nc(C(=O)NCc5ccc(CN6CCCC6)cc5)c(C(C)C)c4c(=O)[nH]3)cc12 [Example 4-48, 6-(5-Methylquinolin-3-yl)-4-oxo-3-(propan-2-yl)-N-({4-[(pyrrolidin-1-yl)methyl]phenyl}methyl)-4,5-dihydropyrazolo[1,5-a]pyrazine-2-carboxamide] | 4.75 nM |
| O=C(NC1CCN(C2CC2)C1)c1nn2cc(-c3ccc4ccccc4c3)[nH]c(=O)c2c1C(F)(F)F (racemic) [6-499] | 13 nM |
| Cc1ccc(-c2cn3nc(C(=O)N[C@@H](c4ccccc4)[C@@H](O)CO)cc3c(=O)[nH]2)cc1C [6-353] | 3.73 nM |
| CC[C@@H](C)NC(=O)c1cc2c(=O)[nH]c(-c3ccc(C)c(C4CC4)c3)cn2n1 [6-613] | 3.67 nM |
| O=C(NCCN(CC(F)F)C1CC1)c1nn2cc(-c3ccc4ccccc4c3)[nH]c(=O)c2c1C(F)(F)F [6-527] | 3.37 nM |
| Cc1c(C(=O)NC(C)c2ccccn2)nn2c(C)c(-c3ccc4ccccc4c3)[nH]c(=O)c12 (centres unmarked) [Example 3-17, 3,7-Dimethyl-6-(2-naphthyl)-4-oxo-N-[1-(2-pyridyl)ethyl]-5H-pyrazolo[1,5-a]pyrazine-2-carboxamide] | 1.8 nM |
| Cc1cccc2ncc(-c3cn4nc(C(=O)Nc5ccnn5C(C)C)c(C(C)C)c4c(=O)[nH]3)cc12 [Example 4-15, 6-(5-Methylquinolin-3-yl)-4-oxo-3-(propan-2-yl)-N-[1-(propan-2-yl)-1H-pyrazol-5-yl]-4,5-dihydropyrazolo[1,5-a]pyrazine-2-carboxamide] | 2.9 nM |
| CN1CC(NC(=O)c2nn3cc(-c4ccc(Cl)cc4)[nH]c(=O)c3c2C2CC2)(c2ccc(F)cc2)C1 [6-673] | 3.3 nM |
| O=C(NC1CCN(CC(F)F)C1)c1nn2cc(-c3ccc4ccccc4c3)[nH]c(=O)c2c1C(F)(F)F (single isomer, unassigned) [6-520] | 3.15 nM |
| Cc1ccc(-c2cn3nc(C(=O)NCC(O)C(F)(F)F)c(C4CC4)c3c(=O)[nH]2)cc1F (single isomer, unassigned; enantiomer1) [Example 1-160, 3-Cyclopropyl-6-(3-fluoro-4-methylphenyl)-4-oxo-N-(3,3,3-trifluoro-2-hydroxpropyl)-4,5-dihydropyrazolo[1,5-a]pyrazine-2-carboxamide (enantiomer1)] | 3.55 nM |
| CC(CN1CCOCC1)NC(=O)c1nn2cc(-c3ccc4ccccc4c3)[nH]c(=O)c2c1C(F)(F)F (single isomer, unassigned) [6-524] | 7 nM |
| Cc1cccc2ncc(-c3cn4nc(C(=O)NC(C)c5ccc6c(c5)OCCO6)c(C(C)C)c4c(=O)[nH]3)cc12 (centres unmarked) [Example 4-57, N-[1-(2,3-Dihydro-1,4-benzodioxin-6-yl)ethyl]-3-isopropyl-6-(5-methyl-3-quinolyl)-4-oxo-5H-pyrazolo[1,5-a]pyrazine-2-carboxamide] | 1.9 nM |
| Cc1ccc(-c2cn3nc(C(=O)NC(C)CN4CCOCC4)c(C4CC4)c3c(=O)[nH]2)cc1C (single isomer, unassigned) [6-452] | 6.2 nM |
| Cc1ccc(-c2cn3nc(C(=O)NC(C)C4CCC4)c(C4CC4)c3c(=O)[nH]2)cc1Cl (centres unmarked) [6-279] | 0.49 nM |
| CC(C)(O)[C@@H](NC(=O)c1cc2c(=O)[nH]c(-c3ccc4ccccc4c3)cn2n1)c1ccc(F)cc1 [Example 1-29, N-[(1S)-1-(4-Fluorophenyl)-2-hydroxy-2-methylpropyl]-6-(naphthalen-2-yl)-4-oxo-4,5-dihydropyrazolo[1,5-a]pyrazine-2-carboxamide] | 1.55 nM |
| Cc1cccc2ncc(-c3cn4nc(C(=O)NC(C)c5ccc(Cl)cc5Cl)c(C(C)C)c4c(=O)[nH]3)cc12 (centres unmarked) [Example 4-82, N-[1-(2,4-Dichlorophenyl)ethyl]-3-isopropyl-6-(5-methyl-3-quinolyl)-4-oxo-5H-pyrazolo[1,5-a]pyrazine-2-carboxamide] | 6.25 nM |
| CCN(CCO)CC(NC(=O)c1cc2c(=O)[nH]c(-c3cnc4cccc(C)c4c3)cn2n1)c1ccccc1 (centres unmarked) [Example 1-115, N-[2-[Ethyl(2-hydroxyethyl)amino]-1-phenylethyl]-6-(5-methyl-3-quinolyl)-4-oxo-5H-pyrazolo-[1,5-a]pyrazine-2-carboxamide] | 3.4 nM |
| CN1CC(NC(=O)c2nn3cc(-c4ccc5c(c4)OCCO5)[nH]c(=O)c3c2C2CC2)(c2ccc(F)cc2)C1 [6-467] | 2.35 nM |
| Cc1ccc(-c2cn3nc(C(=O)NC4CC4C(C)C)c(C(F)(F)F)c3c(=O)[nH]2)cc1F (single isomer, unassigned) [6-145] | 6.25 nM |
| Cc1ccc(-c2cn3nc(C(=O)NCC(N)C(F)(F)F)c(C4CC4)c3c(=O)[nH]2)cc1C (single isomer, unassigned) [6-432] | 1.1 nM |

| Compound | IC50 |
| --- | --- |
| O=C(N[C@H](CCO)c1ccc(F)cc1)c1cc2c(=O)[nH]c(-c3ccc4c(c3)CCCC4)cn2n1 [Example 1-100, N-[(1R)-1-(4-Fluorophenyl)-3-hydroxypropyl]-4-oxo-6-(5,6,7,8-tetrahydronaphthalen-2-yl)-4,5-dihydropyrazolo[1,5-a]pyrazine-2-carboxamide] | 0.965 nM |
| Cc1ccc(-c2[nH]c(=O)c3c(C4CC4)c(C(=O)N[C@@H](c4ccc(F)cc4)C(F)(F)CO)nn3c2F)cc1Cl [6-662] | 6.1 nM |
| Cc1ccc(-c2cn3nc(C(=O)N[C@@H](C)C4CC4)c(C4CC4(F)F)c3c(=O)[nH]2)cc1Cl (some centres unmarked) [6-561] | 1.1 nM |
| Cc1ccc(-c2cn3nc(C(=O)NC4(c5ccc(F)cc5)CCN(C)C4)cc3c(=O)[nH]2)cc1C (single isomer, unassigned) [6-364] | 6.45 nM |
| Cc1ccc(-c2cn3nc(C(=O)NC(CO)c4ccc(F)cc4)c(C(F)(F)F)c3c(=O)[nH]2)cc1Cl (single isomer, unassigned) [6-155] | 2.8 nM |
| Cc1cc(-c2cn3nc(C(=O)NCCC(O)C(F)(F)F)c(C4CC4)c3c(=O)[nH]2)ccc1Cl (single isomer, unassigned) [6-311] | 1.05 nM |
| CC[C@@H](C)NC(=O)c1nn2cc(-c3ccc(C)c(Cl)c3)[nH]c(=O)c2c1C(F)(F)F [Example 1-152, N-[(2R)-Butan-2-yl]-6-(3-chloro-4-methylphenyl)-4-oxo-3-(trifluoromethyl)-4,5-dihydropyrazolo-[1,5-a]pyrazine-2-carboxamide] | 2.1 nM |
| Cc1cc(-c2cn3nc(C(=O)N[C@@H](C)C4CC4)c(C4CCC4)c3c(=O)[nH]2)ccc1Cl [6-618] | 1 nM |
| Cc1cccc2ncc(-c3cn4nc(C(=O)NCc5ccc6[nH]c(=O)[nH]c6c5)c(C(C)C)c4c(=O)[nH]3)cc12 [Example 4-80, 6-(5-Methylquinolin-3-yl)-4-oxo-N-[(2-oxo-2,3-dihydro-1H-benzimidazol-5-yl)methyl]-3-(propan-2-yl)-4,5-dihydropyrazolo[1,5-a]pyrazine-2-carboxamide] | 1.35 nM |
| CC(CN1CCOCC1)NC(=O)c1nn2cc(-c3ccc4ccccc4c3)[nH]c(=O)c2c1C(F)(F)F (single isomer, unassigned) [6-523] | 10.9 nM |
| CC(C)(C)CNC(=O)c1cc2c(=O)[nH]c(-c3ccc4ccccc4c3)cn2n1 [Example 2-11, N-(2,2-Dimethylpropyl)-6-(2-naphthyl)-4-oxo-4,5-dihydropyrazolo[1,5-a]pyrazine-2-carboxamide] | 7.15 nM |
| Cc1c(C(=O)N[C@H](C)c2ccccc2)nn2c(C)c(-c3ccc4ccccc4c3)[nH]c(=O)c12 [Example 3-65, 3,7-Dimethyl-6-(naphthalen-2-yl)-4-oxo-N-[(1R)-1-phenylethyl]-4,5-dihydropyrazolo[1,5-a]pyrazine-2-carboxamide] | 2 nM |
| Cc1ccc(-c2cn3nc(C(=O)NC[C@]4(C5CC5)NC(=O)NC4=O)c(C4CC4)c3c(=O)[nH]2)cc1C [6-457] | 4.65 nM |
| O=C(N[C@@H](c1ccc(F)cc1)C(F)(F)CO)c1nn2cc(-c3ccc(Cl)c(F)c3)[nH]c(=O)c2c1C1CC1 [6-95] | 1.73 nM |
| CC(C)(C)OC(=O)NCC(NC(=O)c1cc2c(=O)[nH]c(-c3ccc4c(c3)OCCO4)cn2n1)c1ccc(F)cc1 (centres unmarked) [6-43] | 3.15 nM |
| Cc1ccc(-c2cn3nc(C(=O)NC(CN(C)C)c4ccc(F)cc4)c(C4CC4)c3c(=O)[nH]2)cc1C (racemic) [6-444] | 3.23 nM |
| CC(C)C(NC(=O)c1cc2c(=O)[nH]c(-c3ccc4ccccc4c3)cn2n1)c1ccc(F)cc1 (centres unmarked) [Example 2-48, N-[1-(4-Fluorophenyl)-2-methylpropyl]-6-(2-naphthyl)-4-oxo-4,5-dihydropyrazolo[1,5-a]pyrazine-2-carboxamide] | 3.6 nM |
| Cc1ccc([C@@H](C)NC(=O)c2nn3cc(-c4cnc5cccc(C)c5c4)[nH]c(=O)c3c2C(C)C)cc1 [Example 4-55, N-[(1R)-1-(4-Methylphenyl)ethyl]-6-(5-methylquinolin-3-yl)-4-oxo-3-(propan-2-yl)-4,5-dihydropyrazolo[1,5-a]pyrazine-2-carboxamide] | 2.75 nM |
| CC(NC(=O)c1cc2c(=O)[nH]c(-c3ccc4ccccc4c3)cn2n1)c1ccc(S(N)(=O)=O)cc1 (centres unmarked) [Example 2-37, 6-(2-Naphthyl)-4-oxo-N-[1-(4-sulfamoylphenyl)ethyl]-4,5-dihydropyrazolo[1,5-a]pyrazine-2-carboxamide] | 4.5 nM |
| C[C@H](NC(=O)c1nn2cc(-c3ccc(Cl)c(F)c3)[nH]c(=O)c2c1C1CCC1)C1CC1 [6-570] | 1.3 nM |
